Reference: patent publication US11261152B2, “Inhibitors of the N-terminal domain of the androgen receptor” (The Regents of the University of California, priority 2017, dated 2022)
Entries after “also recorded” stand apart in the source; their conditions may differ. Structures can show the parent of a compound that is named as a salt.

Experiments:
[1] = system: AR transcriptional activity (MMTV reporter); experiment: MMTV reporter assay; assay type: cell-based
[2] = system: androgen response element (ARE); experiment: ARE reporter assay (tandem copies of the androgen response element); assay type: cell-based
Method: FIG. 11A. Effects of JN series compounds in reporter assays for androgen response element. Experiments were performed in triplicate and results are means+/−s.d.

[3] = system: glucocorticoid response element (GRE) / glucocorticoid receptor; experiment: GRE reporter assay; assay type: cell-based
Method: FIG. 11B. Effects of JN series compounds in reporter assays for glucocorticoid response element. Experiments were performed in triplicate and results are means+/−s.d.

c-Jun TAD = experiment: JUN-TAD fused to GAL4 DNA-binding domain reporter assay; assay type: cell-based; details: Table 3 grade HIGH/MED/LOW, grades not defined
Description: (§1) The inhibitory activity of JN018 was further evaluated in experiments in which the AR transactivation domain (TAD) or the c-Jun or CREB TAD was fused to the heterologous GAL4 DNA-binding domain and thereby drive reporter gene expression governed by the GAL4 response element (FIG. 1).

CREB TAD = experiment: CREB-TAD fused to GAL4 DNA-binding domain reporter assay; assay type: cell-based; details: Table 3 grade HIGH/MED/LOW, grades not defined
Description: as §1

[4] = system: CREB mediated reporter activity; experiment: CRE / CREB mediated reporter assay; assay type: cell-based
[5] = system: AP1 mediated reporter activity; experiment: AP1 reporter assay; assay type: cell-based
[6] = system: prostate cancer cell lines; experiment: Growth inhibition of prostate cancer cell lines (IC50); assay type: cell-based
AR [7] = molecular target: T1, AR (Homo sapiens, UniProt P10275); experiment: AR binding
T1 sequence (P10275 1-920): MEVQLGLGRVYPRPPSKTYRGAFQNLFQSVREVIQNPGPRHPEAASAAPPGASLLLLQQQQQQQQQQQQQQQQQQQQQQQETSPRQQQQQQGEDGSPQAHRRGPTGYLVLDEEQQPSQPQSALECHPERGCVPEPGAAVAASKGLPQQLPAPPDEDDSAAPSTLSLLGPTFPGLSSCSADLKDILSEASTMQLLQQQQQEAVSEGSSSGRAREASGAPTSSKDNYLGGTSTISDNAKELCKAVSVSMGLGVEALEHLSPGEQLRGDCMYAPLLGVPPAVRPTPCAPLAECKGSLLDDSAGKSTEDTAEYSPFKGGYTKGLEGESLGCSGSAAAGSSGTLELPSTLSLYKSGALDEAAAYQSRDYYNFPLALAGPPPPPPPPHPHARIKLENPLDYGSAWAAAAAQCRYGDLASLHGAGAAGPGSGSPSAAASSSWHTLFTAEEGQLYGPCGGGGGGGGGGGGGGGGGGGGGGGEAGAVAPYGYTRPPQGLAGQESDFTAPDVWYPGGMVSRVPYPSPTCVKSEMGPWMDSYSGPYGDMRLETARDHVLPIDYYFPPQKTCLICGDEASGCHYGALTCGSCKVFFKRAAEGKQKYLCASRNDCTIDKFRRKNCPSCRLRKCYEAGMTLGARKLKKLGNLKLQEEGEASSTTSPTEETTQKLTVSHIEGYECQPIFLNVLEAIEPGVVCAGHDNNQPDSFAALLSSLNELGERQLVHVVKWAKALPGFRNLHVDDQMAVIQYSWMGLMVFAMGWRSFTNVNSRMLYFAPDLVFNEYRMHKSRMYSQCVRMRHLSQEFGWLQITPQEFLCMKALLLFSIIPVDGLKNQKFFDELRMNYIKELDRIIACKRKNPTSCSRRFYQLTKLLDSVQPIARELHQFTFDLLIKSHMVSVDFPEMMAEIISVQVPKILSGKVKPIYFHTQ
Description: In particular, JN018 has the following properties: (1) AR TAD is its molecular target. […] (3) JN018 induces rapid degradation of the full-length AR (ARFL) and constitutively active AR splice variants (ARSV) that lack a functional LBD. […] (5) JN018 causes growth inhibition of castration resistant prostate cancer xenografts. (6) JN018 inhibits AR-driven gene expression.

[8] = system: LNCaP-AR castration resistant cell line; experiment: LNCaP-AR castration resistant xenograft in castrated nude mice; assay type: in vivo
Method: FIG. 12A. In vivo effects of JN series compounds.
FIG. 12B. In vivo effects of JN series compounds.
Selected compounds were tested in a mouse xenograft model. In this model, the LNCaP-AR castration resistant cell line was grown subcutaneously in the flanks of castrated nude mice. When tumors reached 150-200 mm^3, mice were administered selected JN series compounds, vehicle or positive control by oral gavage once per day for five days per week (Mon-Fri). […].

[9] = system: AR regulated genes (TMPRSS, NDRG), AR^FL, AR-V7; experiment: Expression of AR-regulated genes (Western blot); assay type: cell-based
Method: 22Rv1 and CWR22 cells were exposed to JN018 at the indicated concentrations (in μM) for 24 hours before protein extraction for Western blotting.
JN018 was further evaluated to identify a mechanism for its activity in prostate cancer cell lines. It was discovered that JN018 inhibits the expression of AR regulated genes. […] In principle, decreased AR expression can be attributed to several different effects, such as gene transcription, mRNA stability, translation, or protein stability.

[10] = system: AR-null PCa cells (DU145, PC3); experiment: MTT / CellTiter GLO cell viability, AR-null prostate cancer cells
Method: (§2) The results are means of quadruplicate expts±s.d. Top panel: CellTiter GLO luminescent bioassay (arbitrary units on vertical axis). Bottom panel: classical MTT assay ([blue/yellow]=[viable/non-viable]).
(§3) Experiments were performed in quadruplicate; results are means+/−s.d.
AR null PC3 cells were exposed to the indicated compounds for 6 days; cell viability was measured by MTT assay. Results were normalized to that of vehicle control. Experiments were performed in quadruplicate; results are means+/−s.d.
For each compound and concentration in the figure, the bars represent relative cell viability of 22Rv1, LAPC4, and DU145, from left to right.
For each compound and concentration in the figure, the bars represent relative cell viability of CWR22 and PC3, from left to right.

[11] = system: AR positive PCa cells (LNCaP, LNCaP-AR, CWR22, 22Rv1, LAPC4); experiment: MTT / CellTiter GLO cell viability, AR positive prostate cancer cells
Method: as §2, §3
Results were normalized to that of vehicle control. Experiments were performed in quadruplicate; results are means+/−s.d.
Next, the effects of the compounds on growth of prostate cancer cell lines in vitro were evaluated.

AR [12] = molecular target: AR (Homo sapiens, UniProt P10275); experiment: AR inhibition (reporter activity of full-length AR and AR splice variants)
[13] = Table 3 grade HIGH/MED/LOW, grades not defined

C=C(CN(C)Cc1ccccc1)C(=O)/C(=C/c1ccc(Cl)cc1)c1ccccc1 [JN018, (E)-4-((Benzyl(methyl)amino)methyl)-1-(4-chlorophenyl)-2-phenylpenta-1,4-dien-3-one hydrochloride]
MMTV [1, 13]: HIGH
reporter activity driven by the MMTV promoter ([1]; result in words): inhibits reporter activity
ARE [2, 13]: HIGH
reporter activity driven by the ARE ([2]; result in words): inhibits reporter activity
GRE [3, 13]: LOW
GR / GRE mediated reporter (transcriptional) activity ([3]; result in words, hydrochloride): does not inhibit; also recorded: does not affect
JUN-TAD (c-Jun TAD): LOW
CREB-TAD (CREB TAD): LOW
CRE [4, 13]: LOW
CREB mediated reporter activity ([4]; result in words): does not affect
AP1 [5, 13]: LOW
AP1 mediated reporter activity ([5]; result in words): does not affect
IC50 [6]: 1500 nM
binding to the AR (AR [7]; result in words): direct, selective, high affinity covalent binding
Kd (AR [7]; unit inferred): 7.3 nM
tumor growth of LNCaP-AR model in castrated nude mice ([8]; oral gavage once per day, five days per week (Mon-Fri), hydrochloride): inhibits growth
signs of toxicity in mice ([8]; xenograft study, oral gavage Mon-Fri): some mice exhibited signs of toxicity
full length AR and AR-V7 expression [9]: reduces both full length AR and AR-V7 expression
expression of TMPRSS and NDRG ([9]; 22Rv1 and CWR22 cells, 24 hours): reduces expression of TMPRSS and NDRG in a dose-dependent fashion
MTT AR-Neg [10, 13]: LOW
growth of AR null prostate cancer cells ([10]; result in words): had no effect
MTT AR-Pos [11, 13]: HIGH
growth of AR expressing prostate cancer cells ([11]; result in words): inhibits the growth
reporter activity of endogenously and ectopically expressed full-length AR and AR-V7 (AR [12]; LNCaP, LNCaP-AR, 22Rv1, PC3 transfected with ARΔ567): inhibits the reporter activity
IC50 (AR [12]; read-out: IC50 for AR inhibition): 110 nM
